Assay results: patent US10273237B2, “Imidazopyridazine compounds useful as modulators of IL-12, IL-23 and/or IFN-α responses” (BRISTOL-MYERS SQUIBB COMPANY, priority 2013, dated 2019)
Like-named read-outs stand apart in the source and are kept apart here.

Tests used:
[1] = tested on: IFNα-stimulated Kit225 T cells with STAT-dependent luciferase reporter; assay: Kit225 T cell assay, STAT-dependent luciferase reporter, IFNα stimulated; format: cell-based, human; conditions: 5-6 hours, read-out: IFNa Kit225 Reporter, LE (IC50)
Procedure: (§1) Kit225 T cells with a stably-integrated STAT-dependent luciferase reporter were plated in RPMI (GIBCO) containing 10% heat-inactivated FBS (GIBCO) and 100 U/mL PenStrep (GIBCO). The cells were then stimulated with either 20 ng/mL human recombinant IL-23 or 200 U/mL human recombinant IFNα (PBL InterferonSource) for 5-6 hours. Luciferase expression was measured using the STEADY-GLO® Luciferase Assay System (PROMEGA®) according to the manufacturer's instructions.

[2] = tested on: IL-23-stimulated Kit225 T cells with STAT-dependent luciferase reporter; assay: Kit225 T cell assay, STAT-dependent luciferase reporter, IL-23 stimulated; format: cell-based, human; conditions: read-out: IL-23 Kit225 Reporter, LE (IC50)
Procedure: as §1

[3] = 200 U/mL human recombinant IFNα
[4] = 20 ng/mL human recombinant IL-23, 5-6 hours
[5] = Homo sapiens, KIT225, 200 U/mL human recombinant IFNα
[6] = Homo sapiens, KIT225, 20 ng/mL human recombinant IL-23, 5-6 hours

SMILES	IC50 [1, 3] [nM]	IC50 [2, 4] [nM]	IC50 [1, 5] [nM]	IC50 [2, 6] [nM]
CNc1cc(Nc2cccn(-c3ccccc3)c2=O)nn2c(C(=O)NC(CO)CCl)cnc12 (stereo not drawn) [Example 4, N-(1-Chloro-3-hydroxypropan-2-yl)-8-(methylamino)-6-(2-oxo-1-phenyl-1,2-dihydropyridin-3-ylamino)imidazo[1,2-b]pyridazine-3-carboxamide]	–	–	320	520
CNc1cc(Nc2cccn(-c3cncc(C#N)n3)c2=O)nn2c(C(=O)NCC(C)(C)CO)cnc12 [compound 258]	–	–	590	1220
CNc1cc(Nc2cccn(C)c2=O)nn2c(C(=O)NC3CCC3)cnc12 [Example 68]	10	30	–	–
CNc1cc(Nc2cccn(-c3ccc(C4CC4)nn3)c2=O)nn2c(C(=O)N[C@@H]3C[C@@H]3F)cnc12 [Example 98]	20	40	–	–
CNc1cc(Nc2cccn(-c3ccccn3)c2=O)nn2c(C(=O)N[C@@H]3CCOC3)cnc12 [Example 62]	270	640	–	–
CNc1cc(Nc2cccn(C)c2=O)nn2c(C(=O)NC3CCCC3)cnc12 [Example 208]	60	80	–	–
CNc1cc(Nc2cc(F)cn(CC3CC3)c2=O)nn2c(C(=O)NC3CC3)cnc12 [Example 15]	270	190	–	–
CCC(C)NC(=O)c1cnc2c(NC)cc(Nc3cccn(C)c3=O)nn12 (single isomer, unassigned) [Example 73]	120	190	–	–
CNc1cc(Nc2cncn(-c3ccc(C)nn3)c2=O)nn2c(C(=O)N[C@@H]3C[C@@H]3F)cnc12 [Example 80]	330	1740	–	–
CNc1cc(Nc2cccn(-c3ccccc3)c2=O)nn2c(C(=O)NC3CCC(O)C3(C)C)cnc12 (stereo not drawn) [Example 237]	400	440	–	–
CNc1cc(Nc2cc(F)cn(CCF)c2=O)nn2c(C(=O)NC3CC3)cnc12 [Example 21]	110	610	–	–
CNc1cc(Nc2cccn(-c3cccc(F)n3)c2=O)nn2c(C(=O)NCc3nccs3)cnc12 [Example 192]	180	230	–	–
CNc1cc(Nc2cccn(-c3ccc(C)nn3)c2=O)nn2c(C(=O)NC3CCC3)cnc12 [Example 64]	30	40	–	–
CNc1cc(Nc2cccn(-c3ccc(C)nn3)c2=O)nn2c(C(=O)NCCF)cnc12 [Example 102]	260	260	–	–
CNc1cc(Nc2cccn(-c3ccc(C)nn3)c2=O)nn2c(C(=O)NC(C)COC)cnc12 (stereo not drawn) [Example 234]	140	290	–	–
CNc1cc(Nc2cccn(-c3ccn(C)n3)c2=O)nn2c(C(=O)NC3CCC3)cnc12 [Example 159]	40	30	–	–

SMILES	IC50 [1, 3] [nM]	IC50 [2, 4] [nM]	IC50 [1, 5] [nM]	IC50 [2, 6] [nM]
CNc1cc(Nc2cccn(-c3ccc(F)cn3)c2=O)nn2c(C(=O)N[C@@H]3C[C@@H]3F)cnc12 [Example 37]	30	20	–	–
CNc1cc(Nc2cccn(-c3cnc(C(=O)N(C)C)cn3)c2=O)nn2c(C(=O)NCC(C)(C)CO)cnc12 [compound 262]	–	–	110	90
CCC(=O)N1CCC(n2cccc(Nc3cc(NC)c4ncc(C(=O)NC5CC5)n4n3)c2=O)CC1 [Example 249]	–	–	250	500
CNc1cc(Nc2cccn(-c3ncc(F)cn3)c2=O)nn2c(C(=O)NC3CCCC3)cnc12 [Example 172]	180	260	–	–
CNc1cc(Nc2cccn(-c3ccccc3)c2=O)nn2c(C(=O)NC3CC3)cnc12 [Example 119]	120	80	–	–
CNc1cc(Nc2cccn(C)c2=O)nn2c(C(=O)NC3(C#N)CC3)cnc12 [Example 1, N-(1-Cyanocyclopropyl)-6-(1-methyl-2-oxo-1,2-dihydropyridin-3-ylamino)-8-(methylamino)imidazo[1,2-b]pyridazine-3-carboxamide]	–	–	310	480
CNc1cc(Nc2cccn(-c3ccc(F)nc3)c2=O)nn2c(C(=O)NC3CC3)cnc12 [Example 17]	180	240	–	–
CNc1cc(Nc2cccn(-c3ccc(C(C)O)cc3)c2=O)nn2c(C(=O)NC3CCC3)cnc12 (stereo not drawn) [Example 142]	90	70	–	–
CNc1cc(Nc2cncn(-c3ccc(C)nn3)c2=O)nn2c(C(=O)NC3CCC3)cnc12 [Example 78]	180	230	–	–
CNc1cc(Nc2cccn(-c3ccc(C#N)cc3)c2=O)nn2c(C(=O)NC3(C#N)CC3)cnc12 [Example 13]	230	150	–	–
CNc1cc(Nc2cccn(C3CCCCC3)c2=O)nn2c(C(=O)NC3CC3)cnc12 [Example 226]	90	240	–	–
CNc1cc(Nc2cccn(-c3ncccc3F)c2=O)nn2c(C(=O)NC3CC3)cnc12 [Example 41]	60	80	–	–
O=C(NC1CCC1)c1cnc2c3c(c(Nc4cccn(-c5ccccn5)c4=O)nn12)OCCN3 [Example 239, N-Cyclobutyl-6-((2-oxo-2H-[1,2′-bipyridin]-3-yl)amino)-9,10-dihydro-8H-imidazo[1′,2′:1,6]pyridazino[4,5-b][1,4]oxazine-3-carboxamide]	–	–	100	210
CNc1cc(Nc2cccn(-c3ccc(C(=O)N4CCCC4)cn3)c2=O)nn2c(C(=O)N[C@@H]3C[C@@H]3F)cnc12 [compound 265]	–	–	60	40
CNc1cc(Nc2cccn(-c3ccc(N4CCOCC4)cc3)c2=O)nn2c(C(=O)NC3CC3F)cnc12 (stereo not drawn) [Example 147]	20	30	–	–
CNc1cc(Nc2cc(F)cn(C3CC3)c2=O)nn2c(C(=O)NC3(C#N)CC3)cnc12 [Example 51]	220	160	–	–

Results, then the compound that gave them:

IC50 [1, 3] [nM]	IC50 [2, 4] [nM]	IC50 [1, 5] [nM]	IC50 [2, 6] [nM]	SMILES
100	170	–	–	CNc1cc(Nc2cccn(-c3ccc(F)cc3)c2=O)nn2c(C(=O)NC3(C#N)CC3)cnc12 [Example 12]
30	20	–	–	CNc1cc(Nc2cccn(-c3cccc(C(C)(C)O)n3)c2=O)nn2c(C(=O)NC3CCC3)cnc12 [Example 77]
130	100	–	–	CNc1cc(Nc2cccn(-c3cccc(F)n3)c2=O)nn2c(C(=O)NC3(C#N)CC3)cnc12 [Example 167]
70	200	–	–	CNc1cc(Nc2cccn(-c3ccccc3)c2=O)nn2c(C(=O)NC3(C#N)CC3)cnc12 [Example 120]
20	70	–	–	CNc1cc(Nc2cc(Cl)cn(C)c2=O)nn2c(C(=O)NC3(C#N)CC3)cnc12 [Example 23]
270	220	–	–	CNc1cc(Nc2cccn(-c3ccccc3)c2=O)nn2c(C(=O)NCc3nccs3)cnc12 [Example 182]
50	20	–	–	CNc1cc(Nc2cccn(-c3cccc(C)n3)c2=O)nn2c(C(=O)N[C@@H]3C[C@@H]3F)cnc12 [Example 49]
100	130	–	–	CNc1cc(Nc2cccn(-c3ccn(C)n3)c2=O)nn2c(C(=O)NC3CC3)cnc12 [Example 158]
–	–	150	150	CNc1cc(Nc2cccn(-c3nccc(C(F)(F)F)n3)c2=O)nn2c(C(=O)NC3CCC3)cnc12 [Example 5, N-Cyclobutyl-8-(methylamino)-6-((2-oxo-1-(4-(trifluoromethyl)pyrimidin-2-yl)-1,2-dihydropyridin-3-yl)amino)imidazo[1,2-b]pyridazine-3-carboxamide]
–	–	20	50	CCn1cc(Cl)cc(Nc2cc(NC)c3ncc(C(=O)NC4CC4)n3n2)c1=O [Example 243, 6-((5-chloro-1-ethyl-2-oxo-1,2-dihydropyridin-3-yl)amino)-N-cyclopropyl-8-(methylamino)imidazo[1,2-b]pyridazine-3-carboxamide]
50	80	–	–	CNc1cc(Nc2cccn(C)c2=O)nn2c(C(=O)N[C@@H]3C[C@@H]3F)cnc12 [Example 116]
140	220	–	–	CNc1cc(Nc2cccn(-c3ccnc(F)c3)c2=O)nn2c(C(=O)NC3CC3)cnc12 [Example 134]
260	310	–	–	CNc1cc(Nc2cc(F)cn(C)c2=O)nn2c(C(=O)NC3(C#N)CC3)cnc12 [Example 11]
–	–	90	160	CNc1cc(Nc2cccn(-c3ccc(C#N)cc3)c2=O)nn2c(C(=O)NC3CC3)cnc12 [Example 2, 6-((1-(4-Cyanophenyl)-2-oxo-1,2-dihydropyridin-3-yl)amino)-N-cyclopropyl-8-(methylamino)imidazo[1,2-b]pyridazine-3-carboxamide]
–	–	190	450	CNc1cc(Nc2cccn(-c3ccc(C(C)(C)O)cn3)c2=O)nn2c(C(=O)NC3CC3)cnc12 [Example 252, N-cyclopropyl-6-((5′-(2-hydroxypropan-2-yl)-2-oxo-2H-[1,2′-bipyridin]-3-yl)amino)-8-(methylamino)imidazo[1,2-b]pyridazine-3-carboxamide]
230	110	–	–	CCNC(=O)c1cnc2c(NC)cc(Nc3cccn(-c4ccc(C)nn4)c3=O)nn12 [Example 99]
–	–	260	230	CNc1cc(Nc2cccn(-c3ccc(C(C)O)cn3)c2=O)nn2c(C(=O)NC3CC3)cnc12 (stereo not drawn) [compound 254]
330	140	–	–	CNc1cc(Nc2cccn(-c3cccc(F)n3)c2=O)nn2c(C(=O)NCc3ccccn3)cnc12 [Example 193]
360	400	–	–	CNc1cc(Nc2cc(F)cn(CC3CC3)c2=O)nn2c(C(=O)NC3(C#N)CC3)cnc12 [Example 16]
